≈ marks a conversion by molar mass, not a printed value. Calls of active or inactive are those of the source. The rule behind the calls is not given here.
How the values were obtained:
Escherichia coli [1] = experiment: Antibacterial activity against Escherichia coli ATCC BAA-2523 assessed as inhibition of bacterial growth incubated for 18 to 24 hrs by broth microdilution method; format: functional; conditions: time 18-24 hrs
Klebsiella pneumoniae [2] = experiment: Antibacterial activity against KPC producing Klebsiella pneumoniae ATCC BAA-1705 assessed as inhibition of bacterial growth incubated for 18 to 24 hrs by broth microdilution method; format: functional; conditions: time 18-24 hrs
Escherichia coli [3] = experiment: Potentiation of rifampicin induced antibacterial activity in Escherichia coli ATCC 25922 assessed as rifampicin MIC at 0.008 ug/ml incubated for 18 to 24 hrs by broth microdilution method (reference value: 2 ug/ml); format: functional; conditions: dose 0.008 µg/ml, time 18-24 hrs
Klebsiella pneumoniae [4] = experiment: Antibacterial activity against carbapenem resistant Klebsiella pneumoniae clinical isolate 19-15 assessed as inhibition of bacterial growth incubated for 18 to 24 hrs by broth microdilution method; format: functional; conditions: time 18-24 hrs
Acinetobacter baumannii [5] = experiment: Antibacterial activity against oxacillinase-27 producing Acinetobacter baumannii NCTC 13304 assessed as inhibition of bacterial growth incubated for 18 to 24 hrs by broth microdilution method; format: functional; conditions: time 18-24 hrs
[6] = Selectivity index, ratio of IC50 for cytotoxicity against human HK-2 cells to MIC for antibacterial activity against Escherichia coli ATCC BAA-2523; format: toxicity, cell-based
Escherichia coli [7] = experiment: Potentiation of rifampicin induced antibacterial activity in Escherichia coli ATCC 25922 assessed as rifampicin MIC at 0.06 ug/ml incubated for 18 to 24 hrs by broth microdilution method (reference value: 2 ug/ml); format: functional; conditions: dose 0.06 µg/ml, time 18-24 hrs
[8] = Clearance in overnight fasted Sprague-Dawley rat at 4 mg/kg, ip measured for 24 hrs by LC-MS/MS analysis; format: ADME, organism-based; conditions: in vivo
Staphylococcus aureus = experiment: Antibacterial activity against Staphylococcus aureus ATCC 29213 assessed as inhibition of bacterial growth incubated for 18 to 24 hrs by broth microdilution method; format: functional; conditions: time 18-24 hrs
Pseudomonas aeruginosa [9] = experiment: Antibacterial activity against carbapenem resistant Pseudomonas aeruginosa clinical isolate 17-1 assessed as inhibition of bacterial growth incubated for 18 to 24 hrs by broth microdilution method; format: functional; conditions: time 18-24 hrs
Escherichia coli [10] = experiment: Potentiation of rifampicin induced antibacterial activity in Escherichia coli ATCC 25922 assessed as rifampicin MIC at 4 ug/ml incubated for 18 to 24 hrs by broth microdilution method (reference value: 2 ug/ml); format: functional; conditions: dose 4 µg/ml, time 18-24 hrs
Cell membrane = experiment: Induction of outer membrane permeabilization in Escherichia coli ATCC 25922 assessed as increase in fluorescence at 1 to 16 ug/ml measured after 3 mins by NPN-dye based assay; format: subcellular; conditions: dose 1-16 µg/ml
Lipopolysaccharide (LPS) [11] = experiment: Binding affinity to LIP-1 sensor chip immobilized Escherichia coli LPS assessed as increase in resonance units measured for 600 secs by SPR analysis; conditions: dose 0.125-4 µM, time 600.0 sec
[12] = AUC (0 to infinity) in overnight fasted Sprague-Dawley rat at 4 mg/kg, ip measured for 24 hrs by LC-MS/MS analysis; format: ADME, organism-based; set-up: dose 4 mg/kg, time 24 hrs, route ip; conditions: in vivo
[13] = Cytotoxicity against human HK-2 cells assessed as inhibition of cell growth incubated for 72 hrs by CCK-8 assay; format: toxicity, cell-based
Escherichia coli [14] = experiment: Bactericidal activity against Escherichia coli ATCC BAA-2523 assessed as bacterial count at 8 times MIC measured after 24 hrs by time-kill assay; format: functional, organism-based
Escherichia coli [15] = experiment: Antibacterial activity against Escherichia coli ATCC BAA-2523 infected in ICR mouse assessed as mouse survival at 2 mg/kg, iv administered into tail vein and measured daily for 7 days relative to control; format: functional; conditions: ATCC BAA-2523, 168 h, time 7 day
Escherichia coli [16] = experiment: Antibacterial activity against Escherichia coli ATCC BAA-2523 infected in ICR mouse assessed as mouse survival at 4 to 8 mg/kg, iv administered into tail vein and measured daily for 7 days; format: functional, organism-based; conditions: dose 4-8 mg/kg, time 7.0 day
Klebsiella pneumoniae [17] = experiment: Antibacterial activity against carbapenem resistant Klebsiella pneumoniae clinical isolate 19-17 assessed as inhibition of bacterial growth incubated for 18 to 24 hrs by broth microdilution method; format: functional; conditions: time 18-24 hrs
[18] = Acute toxicity in ICR mouse assessed as adverse effects at 8.19 mg/kg, iv administered into tail vein and measured twice daily over 1 week; format: organism-based; conditions: in vivo, 168 h, time 1 weeks
Acinetobacter baumannii [19] = experiment: Antibacterial activity against carbapenem resistant Acinetobacter baumannii clinical isolate 19-8 assessed as inhibition of bacterial growth incubated for 18 to 24 hrs by broth microdilution method; format: functional; conditions: time 18-24 hrs
Escherichia coli [20] = experiment: Bactericidal activity against Escherichia coli ATCC BAA-2523 assessed as reduction in bacterial count at 4 times MIC measured after 2 hrs by time-kill assay; format: functional, organism-based
Escherichia coli [21] = experiment: Antibacterial activity against Escherichia coli NCTC 13353 assessed as inhibition of bacterial growth incubated for 18 to 24 hrs by broth microdilution method; format: functional; conditions: time 18-24 hrs
Lipopolysaccharide (LPS) [22] = experiment: Binding affinity to LIP-1 sensor chip immobilized Escherichia coli LPS assessed as dissociation constant measured for 600 secs by SPR analysis
Escherichia coli [23] = experiment: Bactericidal activity against Escherichia coli ATCC BAA-2523 assessed as log reduction in bacterial count by measuring reduction in CFU/ml at 4 times MIC measured after 24 hrs by time-kill assay; format: functional
[24] = Acute toxicity in ICR mouse assessed as animal death at 16 mg/kg, iv administered into tail vein and measured after 0.5 to 1 mins; format: organism-based; conditions: in vivo, time 0.5-1 min
Escherichia coli [25] = experiment: Antibacterial activity against Escherichia coli clinical isolate 19-2 assessed as inhibition of bacterial growth incubated for 18 to 24 hrs by broth microdilution method; format: functional; conditions: time 18-24 hrs
Escherichia coli [26] = experiment: Potentiation of rifampicin induced antibacterial activity in Escherichia coli ATCC 25922 assessed as rifampicin MIC at 2 ug/ml incubated for 18 to 24 hrs by broth microdilution method (reference value: 2 ug/ml); format: functional; conditions: dose 2 µg/ml, time 18-24 hrs
[27] = tested on: Staphylococcus epidermidis; experiment: Antibacterial activity against methicillin resistant Staphylococcus epidermidis clinical isolate 19-6 assessed as inhibition of bacterial growth incubated for 18 to 24 hrs by broth microdilution method; format: functional; conditions: time 18-24 hrs
Escherichia coli [28] = experiment: Potentiation of rifampicin induced antibacterial activity in Escherichia coli ATCC 25922 assessed as rifampicin MIC at 0.5 ug/ml incubated for 18 to 24 hrs by broth microdilution method (reference value: 2 ug/ml); format: functional; conditions: dose 0.5 µg/ml, time 18-24 hrs
Escherichia coli [29] = experiment: Potentiation of rifampicin induced antibacterial activity in Escherichia coli ATCC 25922 assessed as rifampicin MIC at 1 ug/ml incubated for 18 to 24 hrs by broth microdilution method (reference value: 2 ug/ml); format: functional; conditions: dose 1 µg/ml, time 18-24 hrs
Escherichia coli [30] = experiment: Antibacterial activity against KPC producing Escherichia coli ATCC BAA-2340 assessed as inhibition of bacterial growth incubated for 18 to 24 hrs by broth microdilution method; format: functional; conditions: time 18-24 hrs
Escherichia coli [31] = experiment: Bactericidal activity against Escherichia coli ATCC BAA-2523 assessed as reduction in bacterial count at 0.5 to 2 times MIC measured after 2 to 24 hrs by time-kill assay; format: functional, organism-based; conditions: time 2-24 hrs
Pseudomonas aeruginosa [32] = experiment: Antibacterial activity against carbapenem resistant Pseudomonas aeruginosa clinical isolate 19-3 assessed as inhibition of bacterial growth incubated for 18 to 24 hrs by broth microdilution method; format: functional; conditions: time 18-24 hrs

## CCCCCCC[C@@H](O)CC(=O)N[C@H](CCN)C(=O)N[C@H]1CCNC(=O)[C@H]([C@@H](C)O)NC(=O)[C@H](CCN)NC(=O)[C@H](CCN)NC(=O)[C@H]([C@@H](C)O)NC(=O)[C@@H](Cc2ccccc2)NC(=O)[C@H](CCN)NC1=O
Escherichia coli [1]
  MIC: 0.5 µg/mL (≈ 0.49 µM)
Klebsiella pneumoniae [2]
  MIC: 1 µg/mL (≈ 0.98 µM)
Escherichia coli [3]
  MIC: 0.5 µg/mL
Klebsiella pneumoniae [4]
  MIC: 4 µg/mL (≈ 3.92 µM)
Acinetobacter baumannii [5]
  MIC: 8 µg/mL (≈ 7.84 µM)
[6]
  selectivity ratio: 828
Escherichia coli [7]
  MIC: ≤ 0.06 µg/mL
[8]
  CL/F: 3.8 mL/min/kg
Staphylococcus aureus
  MIC: > 64 µg/mL
Pseudomonas aeruginosa [9]
  MIC: 0.5 µg/mL (≈ 0.49 µM)
Escherichia coli [10]
  MIC: ≤ 0.06 µg/mL
Cell membrane
  Activity: Active
Lipopolysaccharide (LPS) [11]
  Activity: Dose-Dependent Effect
[12]
  AUC(0-inf): 17600 ng·h/mL
[13]
  IC50 at 72 h: 414 µg/mL (≈ 406 µM)
Escherichia coli [14]
  Activity: Below limit of detection
Escherichia coli [15]
  survival at 2 mg/kg: 62.5%
Escherichia coli [16]
  Activity: Active
Klebsiella pneumoniae [17]
  MIC: 8 µg/mL (≈ 7.84 µM)
[18]
  Activity: Non-Toxic
Acinetobacter baumannii [19]
  MIC: 32 µg/mL (≈ 31.4 µM)
Escherichia coli [20]
  Activity: Active
Escherichia coli [21]
  MIC: 2 µg/mL (≈ 1.96 µM)
Lipopolysaccharide (LPS) [22]
  Kd: 480 nM
Escherichia coli [23]
  log(activity): 0.6
[24]
  Activity: Toxic
Escherichia coli [25]
  MIC: 1 µg/mL (≈ 0.98 µM)
Escherichia coli [26]
  MIC: ≤ 0.06 µg/mL
[27]
  MIC: > 64 µg/mL
Escherichia coli [28]
  MIC: ≤ 0.06 µg/mL
Escherichia coli [29]
  MIC: ≤ 0.06 µg/mL
Escherichia coli [30]
  MIC: 1 µg/mL (≈ 0.98 µM)
Escherichia coli [31]
  Activity: inactive
Pseudomonas aeruginosa [32]
  MIC: 0.5 µg/mL (≈ 0.49 µM)

Reference: ChEMBL document CHEMBL5380795, “Design, Synthesis, and Bioactivity Investigation of Cyclic Lipopeptide Antibiotics Containing Eight to Nine Amino Acids” (J Med Chem, 2023)
